Our source for the outcome and EC50 values is PubChem BioAssay AID858 (Vanderbilt High Throughput Screening Facility, 2007).

The test addresses D(1A) dopamine receptor (Homo sapiens) (UniProt P21728). The test can be described thus: D1 receptor modulation with EC30 dopamine, dose response, D1 allosteric modulator project, cell-based, CRE-luciferase, HEK293 (AID 858).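 Also: HEK 293 cells bearing human D1 receptor stimulated by dopamine at its EC30; luciferase light from a cAMP response element reporter gene.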

Calls of active or inactive are those of the source.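 The calls were made as follows: active = at least two of three replicate dose series yielding a converging curve fit, whether well or thinly supported; inactive = the rest.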

The term EC50 denotes the concentration giving half of the maximal effect.

Chain of D(1A) dopamine receptor (Homo sapiens) (P21728 whole entry, looked up): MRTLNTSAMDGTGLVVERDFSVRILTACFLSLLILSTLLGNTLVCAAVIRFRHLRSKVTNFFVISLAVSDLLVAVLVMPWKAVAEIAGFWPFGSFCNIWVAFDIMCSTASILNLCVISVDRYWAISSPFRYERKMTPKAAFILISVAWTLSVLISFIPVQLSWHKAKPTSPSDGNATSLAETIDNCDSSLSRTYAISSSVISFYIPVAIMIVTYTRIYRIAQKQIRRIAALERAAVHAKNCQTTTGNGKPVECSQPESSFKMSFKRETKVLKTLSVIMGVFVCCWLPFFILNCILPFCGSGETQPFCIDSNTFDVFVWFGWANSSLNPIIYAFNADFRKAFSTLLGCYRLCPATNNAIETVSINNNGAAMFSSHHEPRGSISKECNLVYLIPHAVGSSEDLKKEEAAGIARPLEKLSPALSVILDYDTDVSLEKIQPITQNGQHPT

Regarding `O=C1COc2ccc(C(=O)c3ccccc3)cc2CN1`, the outcome was inactive.
Still for that read-out and setting: next, `CCOC(=O)c1c(C2CC2)csc1NC(C)=O`: “inactive”; `O=c1cc(-c2ccccc2)c2c([nH]1)CCCC2`: “inactive”.
Same read-out and setting: next, `C=CCSc1nc2ccccc2c(=O)[nH]1`: “inactive”; `Cc1nc2sc3c(c2c(=O)[nH]1)CCC3`: “inactive”.
On the same count and under the same terms, next, `COc1ccc(OC)c(C(=O)COC(=O)C2CC3CCCC(C2)C3=O)c1` (stereo not given): “inactive”; `COc1ccc(OC)c(C2C=C(c3ccc(C)c(C)c3)Nc3nnnn32)c1` (stereo not given): “inactive”.
For the compound `CCCn1c(SCC(=O)Nc2sc(C)c(C)c2C(=O)OCC)nc2c1c(=O)n(C)c(=O)n2C`, the result was inactive.
The same measure, in the same setting: next, `COC(=O)Nc1ccc2c(c1)N(C(=O)CCN1CCOCC1)c1ccccc1S2`: “inactive”.
Still for that read-out and setting: next, `CCOc1ccccc1C1CC(c2ccccc2)Nc2nc(N)nn21` (stereo not given): “inactive”; `Cc1ccccc1NC(=O)c1nc[nH]c1C(=O)NCc1ccccc1`: “inactive”; `N#Cc1cc2ccccc2nc1SCC(=O)Nc1ccc(S(=O)(=O)N2CCCC2)cc1`: “inactive”.
In the case of `Cc1cc(-n2nc(C)cc2C)nc(NS(=O)(=O)c2ccccc2)n1`, the outcome was inactive.
For `CCCCNC(=O)Nc1ccc(Br)cn1`, the EC50 is 2.43 µM.
In the case of `CN1CCN(CC(O)COCc2ccc3c(c2)OCO3)CC1` (stereo not given), the outcome was inactive.
Still for that read-out and setting: next, `NC(=O)c1cc(-c2ccccc2)nc(N2CCCCCC2)n1`: “inactive”.
On the same count and under the same terms, next, `Cc1noc(C)c1CSc1ncnc2ccccc12`: “inactive”.
In the case of `Cc1[nH]n(-c2ccccc2)c(=O)c1S(=O)(=O)c1ccccc1`, the result was inactive.
With `CCOC(=O)N1CCN(C(=O)CCCn2c(=S)[nH]c3ccccc3c2=O)CC1`, the result was inactive.
With `O=C1COc2ccccc2N1Cc1ccccc1Cl`, the result was inactive.
The same measure, in the same setting: next, `CCn1ncc(C2=NOC(C(=O)Nc3ccc4c(c3)OCO4)C2)c1C` (stereo not given): “inactive”.
Still for that read-out and setting: next, `CCc1nc2sc3ccccc3c(=O)c2c(=O)n1Cc1ccco1`: “inactive”; `CCCn1c2c(c(O)c(C(=O)NC)c1=O)CCCC2`: “inactive”; `CCOc1cc(C2CC(=O)NC(SCC)=C2C#N)ccc1O` (stereo not given): “inactive”.
`Cc1cc2cc(CN(CCN3CCOCC3)C(=O)Nc3ccccc3F)c(=O)[nH]c2cc1C`: the outcome was inactive.
On the same count and under the same terms, next, `O=C1CC(c2ccsc2)c2cc3c(cc2N1)OCCO3` (stereo not given): “inactive”; `Cc1cc(NC(=O)COc2nnc(-c3ccccc3)c3ccccc23)no1`: “inactive”.
Regarding `CCCCCn1c(SCC(=O)OC)nc2c1c(=O)[nH]c(=O)n2C`, the result was inactive.
Still for that read-out and setting: next, `COc1ccc(C2CC(c3cc(OC)ccc3OC)n3nnnc3N2)cc1` (stereo not given): “inactive”.
Turning to `CCOC(=O)NCCc1ccc(OC)cc1`, the result was inactive.
The same measure, in the same setting: next, `CSc1oc(-c2ccco2)nc1S(=O)(=O)c1ccc(F)cc1`: “inactive”.
The same measure, in the same setting: next, `CSC1=NCCN1C(=O)Cc1cccs1`: “inactive”.
On the same count and under the same terms, next, `Cc1ccc(S(=O)(=O)N2CCN(C(=O)COC(=O)c3cc(C)oc3C)CC2)cc1`: “inactive”; `O=C(NCc1ccco1)c1cnn2c(C(F)(F)F)cc(-c3ccco3)nc12`: “inactive”.
As for `COc1ccc(C2CC(=O)Nc3ccccc3S2(=O)=O)cc1OC` (stereo not given), the outcome was inactive.
The same measure, in the same setting: next, `O=CN1Cc2[nH]c3ccccc3c2N(c2ccc(Cl)cc2)C1=O`: “inactive”.
In the case of `CC(C)Sc1nc2c(c(=O)n1C)SC(C)C2` (stereo not given), the result was inactive.
On the same count and under the same terms, next, `COc1ccc(NC(=O)c2ccc(NS(=O)(=O)c3c(C)noc3C)cc2)cc1OC`: “inactive”; `CCc1nn(CCCC(=O)N2CCc3ccccc3C2)c(=O)c2cc3occc3n12`: “inactive”.
The same measure, in the same setting: next, `Cc1cc(C)n(-c2nc3ccccc3nc2Nc2ccc(CC(=O)O)cc2)n1`: “inactive”; `CCOC(=O)c1c(-c2ccncc2)csc1N`: “inactive”.
Still for that read-out and setting: next, `CC(=O)C1=C(C)NC(SCC(=O)c2ccc(F)cc2)=C(C#N)C1c1ccco1` (stereo not given): “inactive”.
With `CCOC(=O)c1c(C)c(C(=O)NCc2ccc3c(c2)OCO3)c(C)n1C`, the result was inactive.
Turning to `COc1ccc(S(=O)(=O)Nc2ccc3c(c2)OCO3)cc1OC`, the result was inactive.
The same measure, in the same setting: next, `O=S(=O)(Nc1cc(Cl)ccc1N1CCCCC1)c1cccs1`: “inactive”.
For the compound `NC(=O)COc1ccc(NC(=O)OCc2ccccc2)cc1`, the outcome was inactive.
On the same count and under the same terms, next, `COC(=O)c1sc2ccccc2c1C(=O)OC`: “inactive”.
For `O=C1C(Cl)=C(NCC2CCCO2)C(=O)N1C1CCCCC1` (stereo not given), the outcome was inactive.
Take `O=c1nc2scc(-c3ccccc3)n2c2ccccc12`: the result was inactive.
Still for that read-out and setting: next, `CCC(C)Nc1nc(OC)nc(N(C)C#N)n1` (stereo not given): “inactive”; `COc1ccc(Cc2nnc(NC(=O)c3c(-c4ccccc4)noc3C)s2)cc1`: “inactive”.
Same read-out and setting: next, `c1csc(-c2nn3c(Cn4nnc5ccccc54)nnc3s2)c1`: “inactive”.
The same measure, in the same setting: next, `CCCCSc1nc2c(c(=O)n1CC)SC(C)C2` (stereo not given): “inactive”.
Regarding `Cc1cc(C)nc(SCC(=O)Nc2ncc3c(n2)CC(C)(C)CC3=O)n1`, the outcome was inactive.
Same read-out and setting: next, `COc1ccc(Cn2nnc3c(=O)[nH]c(C4CCCN(C(=O)c5ccccc5)C4)nc32)cc1` (stereo not given): “inactive”; `CCCSc1nsc(SCCC)c1C(N)=O`: “inactive”; `CC1(C)CN=C(Nc2nc3ccccc3s2)S1`: “inactive”.
For the compound `Cc1c(C(=O)OCC(C)C)[nH]c2c1C(=O)CC(c1ccco1)C2` (stereo not given), the concentration giving a half-maximal response (EC50) is 1.57 µM.
For `c1ccc(-c2nc3ccccc3c3nncn23)cc1`, the result was inactive.
Same read-out and setting: next, `N#Cc1nc(-c2ccccc2Cl)oc1N1CCOCC1`: “inactive”; `Clc1ccccc1-c1nnc2sc(-c3ccc(Br)o3)nn12`: “inactive”; `COC(=O)c1cc(=O)n(Cc2ccco2)c(=Nc2ccc(F)c(Cl)c2)s1`: “inactive”.
The same measure, in the same setting: next, `COc1ccc(-c2cc(=O)oc3c(C)c(O)c(CN(C)C)cc23)cc1`: “inactive”; `COCCNc1oc(-c2ccc(C)cc2)nc1C#N`: “inactive”.
On the same count and under the same terms, next, `Cc1nnc(SCCn2c(N3CCCC(C)C3)nc3c2c(=O)[nH]c(=O)n3C)s1` (stereo not given): “inactive”.
Consider `COC(=O)c1ccc(OCCn2cnc3ccccc3c2=O)cc1`, for which the outcome was inactive.
For the compound `Clc1cccc(Nc2c3c(nc4ncnn24)CCC3)c1`, the outcome was inactive.
On the same count and under the same terms, next, `CCOC(=O)C1CCCN(C(=O)c2cc(Cl)ccc2Cl)C1` (stereo not given): “inactive”.
`CCCC(=O)Nc1ccc(NC(=O)C2CC2)cn1`: the EC50 is 0.0224 µM.
As for `COc1ccc(N2C(=O)C3CCCN3C2c2ccccc2)cc1Cl` (stereo not given), the outcome was inactive.
In the case of `COc1ccc(C(=O)Nc2nnc(Cc3cccs3)s2)cc1OC`, the EC50 is 0.313 µM.
For the compound `Cn1c(SCc2ccon2)nc2ccccc2c1=O`, the outcome was inactive.
Still for that read-out and setting: next, `CSc1ccc(C2C(C#N)=C(N)N(c3ccccc3)C3=C2C(=O)CCC3)cc1` (stereo not given): “inactive”; `CC(=O)c1cc(C#N)c(SCc2ccncc2)nc1C`: “inactive”; `CCc1nc(N2CCCCC2)c2oc3ccccc3c2n1`: “inactive”.
Still for that read-out and setting: next, `Cc1ccc(-n2cnnn2)c2cccnc12`: “inactive”; `Cc1nc2ccc(CCO)cc2s1`: “inactive”; `CNc1nc(C)c(C(=O)OCC(=O)OC)s1`: “inactive”.
The same measure, in the same setting: next, `CCC(=O)N1CCc2cc(S(=O)(=O)NCCC(=O)NC3CCCc4ccccc43)ccc21` (stereo not given): “inactive”; `COC(=O)c1ccc(COc2nc(C)cc(C)c2C#N)o1`: “inactive”; `CC(C)Cn1c(-c2cccs2)nc2nc3ccccc3nc21`: “inactive”.
For the compound `CCOC(=O)c1c(C)c(C(=O)NCc2ccccc2OC)c(C)n1C`, the outcome was inactive.
Consider `O=C(CCSc1nc2ccccc2o1)N1CCOCC1`, for which the outcome was inactive.
Same read-out and setting: next, `COc1ccc(-c2coc3cc(O)cc(O)c3c2=O)cc1`: “inactive”; `COc1ccc(OC)c(C2=NOC(C(=O)Nc3cccc(C(C)=O)c3)C2)c1` (stereo not given): “inactive”.
Consider `COc1ccc(OC)c(/C=N/c2oc(-c3ccco3)c(-c3ccco3)c2C#N)c1`, for which the EC50 is 1.97 µM.
On the same count and under the same terms, next, `CC1(C)Cc2c(C#N)c(NC3CCCCC3)nc(-c3ccco3)c2CO1`: 2.6 µM.
For the compound `C=CCn1c(SCc2nc3c(c(=O)[nH]c(=O)n3CCCC)n2CCC)nnc1-c1ccccc1`, the result was inactive.
With `CCCCn1c(=NC(=O)c2cccnc2)c(C(=O)OCC)cc2c(=O)n3ccccc3nc21`, the EC50 was 2.02 µM.
`CCOC(=O)CSc1nc2c(sc(=S)n2Cc2ccco2)c(=O)n1-c1ccccc1`: the result was inactive.
Regarding `c1ccc(C2=Nn3c(nnc3-c3ccncc3)SC2)cc1`, the outcome was inactive.
The same measure, in the same setting: next, `Cc1cc(=O)c2n(Cc3ccc(Cl)cc3)nc[n+]2[nH]1`: “inactive”; `CCOC(=O)N1CCN(S(=O)(=O)c2ccc3c(c2)CCN3C(=O)C2CCC2)CC1`: “inactive”.
On the same count and under the same terms, next, `Cc1cccc(C2CC(c3ccc(F)cc3)Nc3nc(N)nn32)c1` (stereo not given): “inactive”; `Cc1cc(-c2ccccc2)c(C#N)c(SCC(N)=O)n1`: “inactive”; `COc1ccccc1-c1nnc2n1N=C(C(C)(C)C)CS2`: “inactive”.
The same measure, in the same setting: next, `CC(C)n1c(C(O)c2ccccc2)nc2ccccc21` (stereo not given): “inactive”; `CCOc1ccc(CC(=O)Nc2c(C(N)=O)oc3ccccc23)cc1OCC`: “inactive”; `Cc1cc(NS(=O)(=O)c2ccc(NC(=O)COc3ccccc3C(C)C)cc2)no1`: “inactive”.
Turning to `COc1ccc(CCNc2nnc(Sc3nnnn3-c3ccccc3)s2)cc1OC`, the result was inactive.
